Five compounds from patent US9023789B2, “Amylin analogs and pharmaceutical compositions thereof” (Novo Nordisk A/S, priority 2012, dated 2015) can be followed below.

Data set [1] relates to Sprague Dawley (SD) rats. Nature of the data set: ASSAY (I) efficacy testing on appetite (food intake) using an ad libitum fed rat model. It is filed as in vivo. Conditions: rat, 30 nmol/kg. Summed up:
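Individual food consumption was logged each hour up to 7 h and again at 24 h, occasionally 48 h, with Grubbs-test outliers removed. Each 200–250 g Sprague Dawley rat, free-feeding in its home cage under reversed lighting, received a single ip, po or sc dose of 0.01–3 mg/kg at lights-off, alongside a vehicle group.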

Data set [2] can be described thus: ASSAY (III) ThT fibrillation assay for physical stability. Type of data set: physicochemical. A digest of the protocol:
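Physical stability scored by ThT fluorescence (444 nm excitation, 485 nm emission) tracked every 20 min during 37 °C incubation with 960 rpm shaking, ThT at 1 μM final. Values are replicate means with SD at chosen times; HPLC against pramlintide standard gives initial and post-assay soluble concentrations.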

Data set [3] can be described thus: ASSAY (IV) determination of solubility. It is filed as physicochemical. A digest of the protocol: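 UPLC read-out of polypeptide concentration after centrifugation. Samples: aqueous polypeptide stock ([…]) + 100 mM buffer 1:1, glycylglycine pH 3.0–5.0 or bistrispropane pH 6.0–8.0; 18 h, RT.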
Where [4] appears, read: bistrispropane buffer, pH 6.5, read-out: Solubility pH 6.5 Concentration.
Setting [5] is: bistrispropane buffer, pH 7.5, read-out: Solubility pH 7.5 Concentration.
Setting [6] is: bistrispropane buffer, pH 6.0, read-out: Solubility pH 6.0 Concentration.
[7] abbreviates: bistrispropane buffer, pH 7.0, read-out: Solubility pH 7.0 Concentration.
The mark [8] stands for this setting: bistrispropane buffer, pH 8.0, read-out: Solubility pH 8.0 Concentration.
Where [9] appears, read: glycylglycine buffer, pH 3.0, read-out: Solubility pH 3.0 Concentration.
The mark [10] stands for this setting: glycylglycine buffer, pH 4.0, read-out: Solubility pH 4.0 Concentration.
Setting [11] is: glycylglycine buffer, pH 5.0, read-out: Solubility pH 5.0 Concentration.

In brackets after ≈: the same amount, converted by molar mass. Read-outs that look alike come from different tables or passages of the source. Numbered stars: 1 amine (or outer) side, 2 acyl side, 3 side chain; on linkers, the order of the positions; unused ones are H or OH. Bridge positions count the residues as written; N and C are the ends. Side chains are listed from the residue outwards. Peptide text beside a SMILES is read from it. * marks the point of attachment. C20 diacid = O=C(O)CCCCCCCCCCCCCCCCCCC(=O)*; γGlu = O=C(O)[C@H](CCC(=O)[*:2])N[*:1]; AEEA = NCCOCCOCC(=O)O

As to `CC[C@H](C)[C@H](NC(=O)[C@H](C)NC(=O)CNC(=O)[C@H](Cc1ccccc1)NC(=O)[C@H](CC(N)=O)NC(=O)[C@@H]1CCCN1C(=O)[C@H](CO)NC(=O)[C@H](CO)NC(=O)[C@H](Cc1c[nH]cn1)NC(=O)[C@H](CCCNC(=N)N)NC(=O)[C@H](CC(C)C)NC(=O)[C@H](Cc1ccccc1)NC(=O)[C@H](CCCNC(=N)N)NC(=O)[C@H](C)NC(=O)[C@H](CC(C)C)NC(=O)[C@H](CCCNC(=N)N)NC(=O)[C@H](CCC(N)=O)NC(=O)[C@@H](NC(=O)[C@H](C)NC(=O)[C@@H]1CSSC[C@H](NC(=O)[C@@H](N)CCCCNC(=O)CC[C@H](NC(=O)CCCCCCCCCCCCCCCCCCC(=O)O)C(=O)O)C(=O)N[C@@H](CC(N)=O)C(=O)N[C@@H]([C@@H](C)O)C(=O)N[C@@H](C)C(=O)N[C@@H]([C@@H](C)O)C(=O)N1)[C@@H](C)O)C(=O)N1CCC[C@H]1C(=O)N[C@@H](CO)C(=O)N[C@@H](CO)C(=O)N[C@H](C(=O)N[C@@H](CC(N)=O)C(=O)N[C@H](C(=O)NCC(=O)N1CCC[C@H]1C(=O)N[C@@H](CC(N)=O)C(=O)N[C@H](C(=O)N[C@@H](Cc1ccc(O)cc1)C(N)=O)[C@@H](C)O)C(C)C)[C@@H](C)O` [Example 65] (H-K([γGlu-C20 diacid])CNTATCATQRLARFLRHSSPNFGAIPSSTNVGPNTY-NH2; disulfide 2-7 (inferred); N-terminus assumed), the “Food intake reduction 0-24 h 30 nmol/kg (%)” value in data set [1] was 10%. In data set [1], the “Food intake reduction 24-48 h 30 nmol/kg (%)” value was 0%. The “ThT pH 4.0 lag time (h)” value in data set [2] was determined as 45 h. Further, the solubility at 18 h in data set [3] (setting [4]), in data set [3] (setting [5]), in data set [3] (setting [6]), in data set [3] (setting [7]), in data set [3] (setting [8]) and in data set [3] (setting [9]) was at least 200 µM throughout. Also, the solubility at 18 h in data set [3] (setting [10]) and in data set [3] (setting [11]) was at least 200 µM each time.
Take `CC[C@H](C)[C@H](NC(=O)[C@H](C)NC(=O)CNC(=O)[C@H](Cc1ccccc1)NC(=O)[C@H](CC(N)=O)NC(=O)[C@@H]1CCCN1C(=O)[C@H](CO)NC(=O)[C@H](CO)NC(=O)[C@H](Cc1c[nH]cn1)NC(=O)[C@H](CCCNC(=N)N)NC(=O)[C@H](CC(C)C)NC(=O)[C@H](Cc1ccccc1)NC(=O)[C@H](CC(N)=O)NC(=O)[C@H](C)NC(=O)[C@H](CC(C)C)NC(=O)[C@H](CCCNC(=N)N)NC(=O)[C@H](CCC(N)=O)NC(=O)[C@@H](NC(=O)[C@H](C)NC(=O)[C@@H]1CSSC[C@H](NC(=O)[C@@H](N)CCCCNC(=O)COCCOCCNC(=O)COCCOCCNC(=O)CC[C@H](NC(=O)CCCCCCCCCCCCCCCCCCC(=O)O)C(=O)O)C(=O)N[C@@H](CC(N)=O)C(=O)N[C@@H]([C@@H](C)O)C(=O)N[C@@H](C)C(=O)N[C@@H]([C@@H](C)O)C(=O)N1)[C@@H](C)O)C(=O)N1CCC[C@H]1C(=O)N[C@@H](CO)C(=O)N[C@@H](CO)C(=O)N[C@H](C(=O)N[C@@H](CC(N)=O)C(=O)N[C@H](C(=O)NCC(=O)N[C@@H](CCCNC(=N)N)C(=O)N[C@@H](CC(N)=O)C(=O)N[C@H](C(=O)N[C@@H](Cc1ccc(O)cc1)C(N)=O)[C@@H](C)O)C(C)C)[C@@H](C)O` [Example 95] (H-K([AEEA-AEEA-γGlu-C20 diacid])CNTATCATQRLANFLRHSSPNFGAIPSSTNVGRNTY-NH2; disulfide 2-7 (inferred); N-terminus assumed): in data set [1], the “Food intake reduction 0-24 h 30 nmol/kg (%)” value is 22%. The “Food intake reduction 24-48 h 30 nmol/kg (%)” value in data set [1] is listed as 0%. Besides, the “ThT pH 4.0 lag time (h)” value in data set [2] is on record as 37 h. Moreover, the solubility at 18 h in data set [3] (setting [4]), in data set [3] (setting [5]), in data set [3] (setting [6]), in data set [3] (setting [7]), in data set [3] (setting [8]) and in data set [3] (setting [9]) was at least 200 µM throughout. Moreover, the solubility at 18 h in data set [3] (setting [10]) and in data set [3] (setting [11]) was at least 200 µM in each case.
Consider `CC[C@H](C)[C@H](NC(=O)[C@H](C)NC(=O)CNC(=O)[C@H](Cc1ccccc1)NC(=O)[C@H](CC(N)=O)NC(=O)[C@@H]1CCCN1C(=O)[C@H](CO)NC(=O)[C@H](CO)NC(=O)[C@H](Cc1c[nH]cn1)NC(=O)[C@H](CCCNC(=N)N)NC(=O)[C@H](CC(C)C)NC(=O)[C@H](Cc1ccccc1)NC(=O)[C@H](CC(N)=O)NC(=O)[C@H](C)NC(=O)[C@H](CC(C)C)NC(=O)[C@H](CCCNC(=N)N)NC(=O)[C@H](CCC(N)=O)NC(=O)[C@@H](NC(=O)[C@H](C)NC(=O)[C@@H]1CSSC[C@H](NC(=O)[C@@H](N)CCCCNC(=O)CC[C@H](NC(=O)CCCCCCCCCCCCCCCCCCC(=O)O)C(=O)O)C(=O)N[C@@H](CC(N)=O)C(=O)N[C@@H]([C@@H](C)O)C(=O)N[C@@H](C)C(=O)N[C@@H]([C@@H](C)O)C(=O)N1)[C@@H](C)O)C(=O)N1CCC[C@H]1C(=O)N[C@@H](CO)C(=O)N[C@@H](CO)C(=O)N[C@H](C(=O)N[C@@H](CC(N)=O)C(=O)N[C@H](C(=O)NCC(=O)N[C@@H](CO)C(=O)N[C@@H](CCCCN)C(=O)N[C@H](C(=O)N[C@@H](Cc1ccc(O)cc1)C(N)=O)[C@@H](C)O)C(C)C)[C@@H](C)O` [Example 35] (H-K([γGlu-C20 diacid])CNTATCATQRLANFLRHSSPNFGAIPSSTNVGSKTY-NH2; disulfide 2-7; N-terminus assumed), for which the “Food intake reduction 0-24 h 30 nmol/kg (%)” value in data set [1] was determined as 51%. Moreover, the “Food intake reduction 24-48 h 30 nmol/kg (%)” value in data set [1] worked out at 15%. In addition, the “ThT pH 4.0 lag time (h)” value in data set [2] amounted to 45 h. The solubility at 18 h in data set [3] (setting [4]), in data set [3] (setting [5]), in data set [3] (setting [6]), in data set [3] (setting [7]), in data set [3] (setting [8]) and in data set [3] (setting [9]) was at least 200 µM throughout. Besides, the solubility at 18 h in data set [3] (setting [10]) and in data set [3] (setting [11]) was at least 200 µM each time.
As to `CC[C@H](C)[C@H](NC(=O)[C@H](C)NC(=O)CNC(=O)[C@H](Cc1ccccc1)NC(=O)[C@H](CC(N)=O)NC(=O)[C@@H]1CCCN1C(=O)[C@H](CO)NC(=O)[C@H](CO)NC(=O)[C@H](Cc1c[nH]cn1)NC(=O)[C@H](CCCNC(=N)N)NC(=O)[C@H](CC(C)C)NC(=O)[C@H](Cc1ccccc1)NC(=O)[C@H](Cc1c[nH]cn1)NC(=O)[C@H](C)NC(=O)[C@H](CC(C)C)NC(=O)[C@H](CCCNC(=N)N)NC(=O)[C@H](CCC(N)=O)NC(=O)[C@@H](NC(=O)[C@H](C)NC(=O)[C@@H]1CSSC[C@H](NC(=O)[C@@H](N)CCCCNC(=O)CC[C@H](NC(=O)CCCCCCCCCCCCCCCCCCC(=O)O)C(=O)O)C(=O)N[C@@H](CC(N)=O)C(=O)N[C@@H]([C@@H](C)O)C(=O)N[C@@H](C)C(=O)N[C@@H]([C@@H](C)O)C(=O)N1)[C@@H](C)O)C(=O)N1CCC[C@H]1C(=O)N[C@@H](CO)C(=O)N[C@@H](CO)C(=O)N[C@H](C(=O)N1CCC[C@H]1C(=O)N[C@H](C(=O)NCC(=O)N[C@@H](CO)C(=O)N[C@@H](CC(N)=O)C(=O)N[C@H](C(=O)N[C@@H](Cc1ccc(O)cc1)C(N)=O)[C@@H](C)O)C(C)C)[C@@H](C)O` [Example 62] (H-K([γGlu-C20 diacid])CNTATCATQRLAHFLRHSSPNFGAIPSSTPVGSNTY-NH2; disulfide 2-7; N-terminus assumed), the “Food intake reduction 0-24 h 30 nmol/kg (%)” value in data set [1] came to 62%. In addition, the “Food intake reduction 24-48 h 30 nmol/kg (%)” value in data set [1] is 18%. Further, the “ThT pH 4.0 lag time (h)” value in data set [2] came to 45 h. The solubility at 18 h in data set [3] (setting [4]) was at least 200 µM; in data set [3] (setting [5]), at least 200 µM; in data set [3] (setting [6]), at least 200 µM; in data set [3] (setting [7]) it was at least 200 µM; in data set [3] (setting [8]), 189 µM (≈ 829 µg/mL); in data set [3] (setting [9]), at least 200 µM. The solubility at 18 h in data set [3] (setting [10]) and in data set [3] (setting [11]) was at least 200 µM throughout.
Regarding `CC[C@H](C)[C@H](NC(=O)[C@H](C)NC(=O)CNC(=O)[C@H](Cc1ccccc1)NC(=O)[C@H](CC(N)=O)NC(=O)[C@@H]1CCCN1C(=O)[C@H](CO)NC(=O)[C@H](CO)NC(=O)[C@H](Cc1c[nH]cn1)NC(=O)[C@H](CCCNC(=N)N)NC(=O)[C@H](CC(C)C)NC(=O)[C@H](Cc1ccccc1)NC(=O)[C@H](CC(N)=O)NC(=O)[C@H](C)NC(=O)[C@H](CC(C)C)NC(=O)[C@H](CCCNC(=N)N)NC(=O)[C@H](CCC(N)=O)NC(=O)[C@@H](NC(=O)[C@H](C)NC(=O)[C@@H]1CSSC[C@H](NC(=O)[C@@H](N)CCCCNC(=O)CC[C@H](NC(=O)CCCCCCCCCCCCCCC(=O)O)C(=O)O)C(=O)N[C@@H](CC(N)=O)C(=O)N[C@@H]([C@@H](C)O)C(=O)N[C@@H](C)C(=O)N[C@@H]([C@@H](C)O)C(=O)N1)[C@@H](C)O)C(=O)N1CCC[C@H]1C(=O)N[C@@H](CO)C(=O)N[C@@H](CO)C(=O)N[C@H](C(=O)N[C@@H](CC(N)=O)C(=O)N[C@H](C(=O)NCC(=O)N[C@@H](Cc1c[nH]cn1)C(=O)N[C@@H](CC(N)=O)C(=O)N[C@H](C(=O)N[C@@H](Cc1ccc(O)cc1)C(N)=O)[C@@H](C)O)C(C)C)[C@@H](C)O` [Example 111], the “Food intake reduction 0-24 h 30 nmol/kg (%)” value in data set [1] is recorded as 17%. Besides, the “Food intake reduction 24-48 h 30 nmol/kg (%)” value in data set [1] worked out at 0%. Moreover, the “ThT pH 4.0 lag time (h)” value in data set [2] came out at 10 h. The solubility at 18 h is at least 200 µM in data set [3] (setting [4]); at least 200 µM in data set [3] (setting [5]); at least 200 µM in data set [3] (setting [6]); at least 200 µM in data set [3] (setting [7]); 165 µM (≈ 722 µg/mL) in data set [3] (setting [8]); at least 200 µM in data set [3] (setting [9]). The solubility at 18 h in data set [3] (setting [10]) and in data set [3] (setting [11]) was at least 200 µM throughout.
